Test systems include OVCAR-5 ovarian; A549 NSCLC; UACC-257 melanoma; SNB-19 CNS; CAKI-1 renal; OVCAR-8 ovarian; HCC-2998 colon; ACHN renal.
What all share (test): growth of human tumour cells (NCI), 48 h

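Exposure lasted 48 hours, with cells grown in 96-well plates and compounds tested at five concentrations. Here, GI50 denotes the concentration required for 50% inhibition of growth. TGI denotes the concentration required for complete inhibition of growth.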 Some results are limits rather than exact numbers.

The source of these data is PubChem BioAssay (NCI).

Take `O=C(Nc1ccc2[nH]c(C(=O)N3CC(CCl)c4c3cc([N+](=O)[O-])c3ccccc43)cc2c1)c1cc2ccccc2o1` (stereo not drawn): the GI50 in the assay on OVCAR-5 ovarian, in the assay with A549 NSCLC, with UACC-257 melanoma, in the assay on SNB-19 CNS, with CAKI-1 renal and in the assay with OVCAR-8 ovarian was above 1100 µM throughout. Besides, in the assay on HCC-2998 colon, the GI50 is 57.7 µM. Moreover, the TGI in the assay with OVCAR-5 ovarian, with A549 NSCLC, in the assay with UACC-257 melanoma, in the assay with SNB-19 CNS, in the assay on CAKI-1 renal and in the assay on OVCAR-8 ovarian was above 1100 µM throughout. This compound yielded a TGI with HCC-2998 colon above 1100 µM.

Consider `CC(=O)C1COC(O)C1C` (stereo not drawn), for which the TGI with ACHN renal is 80.9 µM; with OVCAR-5 ovarian, 59.2 µM; with A549 NSCLC, above 100 µM; in the assay with UACC-257 melanoma, above 100 µM; in the assay on SNB-19 CNS, above 100 µM; in the assay with CAKI-1 renal, 62.9 µM. The compound further had a TGI with OVCAR-8 ovarian of 46 µM.

As for `CCN(CC)CCCC(C)Nc1c2ccc(Cl)cc2nc2cc(OC)c(OC)cc12` (stereo not drawn), the GI50 with ACHN renal is 1.18 µM; in the assay with OVCAR-5 ovarian, 2.18 µM; with A549 NSCLC it was 1.85 µM; in the assay on UACC-257 melanoma, 2.23 µM; in the assay with SNB-19 CNS it was 2.18 µM; in the assay with CAKI-1 renal it was 2.01 µM. The figures for the GI50 in the assay with OVCAR-8 ovarian and in the assay with HCC-2998 colon were 2.28 µM and 1.49 µM, respectively. For the same compound, the TGI in the assay with ACHN renal was determined as 2.97 µM; in the assay on OVCAR-5 ovarian, 8.53 µM; in the assay with A549 NSCLC, 4.56 µM; in the assay with UACC-257 melanoma it was 4.1 µM; with SNB-19 CNS, 8.98 µM; in the assay on CAKI-1 renal, 5.78 µM. In addition, the TGI worked out at 10.3 µM with OVCAR-8 ovarian and 3 µM in the assay with HCC-2998 colon.

Consider `COc1cc(F)cc([C@@H](CO)NC(=O)[C@@H](C)N2Cc3ccc(-c4nc(NC5CCOCC5)ncc4Cl)cc3C2=O)c1`, for which the GI50 is 1.54 µM in the assay on ACHN renal; below 0.0127 µM in the assay with OVCAR-5 ovarian; 0.566 µM in the assay with A549 NSCLC; below 0.01 µM in the assay with UACC-257 melanoma; 1.73 µM in the assay with SNB-19 CNS; 1.93 µM with CAKI-1 renal. Moreover, the GI50 is 13.6 µM in the assay with OVCAR-8 ovarian and 0.0125 µM in the assay with HCC-2998 colon. In addition, the TGI was 99.1 µM with ACHN renal; above 100 µM in the assay with OVCAR-5 ovarian; above 100 µM with A549 NSCLC; 0.0367 µM in the assay on UACC-257 melanoma; above 100 µM in the assay with SNB-19 CNS; 69.1 µM in the assay on CAKI-1 renal. In addition, the values for the TGI with OVCAR-8 ovarian and in the assay on HCC-2998 colon were 64.8 µM and 57.5 µM, respectively.

As for `O=C(/C=C/c1cccc([N+](=O)[O-])c1)c1ccc(O)c(CN2CCN(c3cc4c(cc3F)c(=O)c(C(=O)O)cn4C3CC3)CC2)c1`, the GI50 with ACHN renal is 1.4 µM; with OVCAR-5 ovarian it was 1.75 µM; with A549 NSCLC, 3.1 µM; with UACC-257 melanoma, 1.69 µM; in the assay on SNB-19 CNS it was 1.34 µM; in the assay on CAKI-1 renal it was 1.63 µM. Moreover, the GI50 is 2.52 µM in the assay with OVCAR-8 ovarian and 1.92 µM in the assay with HCC-2998 colon. Besides, the TGI came out at 2.7 µM with ACHN renal; 3.35 µM with OVCAR-5 ovarian; 17.2 µM with A549 NSCLC; 3.35 µM in the assay on UACC-257 melanoma; 2.79 µM with SNB-19 CNS; 3.24 µM with CAKI-1 renal. In addition, the results for the TGI in the assay on OVCAR-8 ovarian and with HCC-2998 colon were 8.77 µM and 3.43 µM, respectively.

Take `COc1ccc(-c2nn(-c3cccc(Cl)c3)cc2-c2c(C#N)c(=O)n3[nH]c(-c4ccc(C)cc4)nc3c2C#N)cc1`: the GI50 in the assay with ACHN renal was 2.41 µM; in the assay on OVCAR-5 ovarian, 4.5 µM; with A549 NSCLC, 1.85 µM; in the assay with UACC-257 melanoma, 6.68 µM; in the assay with SNB-19 CNS it was 2.17 µM; with CAKI-1 renal, 2.46 µM. The values for the GI50 in the assay on OVCAR-8 ovarian and with HCC-2998 colon were 0.818 µM and 5.04 µM, respectively. Also, the TGI with ACHN renal was determined as 12.6 µM; in the assay on OVCAR-5 ovarian, 11.8 µM; in the assay on A549 NSCLC, 12.4 µM; with UACC-257 melanoma it was 16.7 µM; in the assay with SNB-19 CNS it was 18.2 µM; with CAKI-1 renal it was 10.4 µM. Moreover, the TGI in the assay with OVCAR-8 ovarian is 2.99 µM; in the assay with HCC-2998 colon it was 10.8 µM.

Take `CCn1c2ccc(C(=O)CCCN(C)C)cc2c2cc(C(=O)CCCN(C)C)ccc21`: the TGI with ACHN renal is 6.06 µM; in the assay on OVCAR-5 ovarian it was 9.34 µM; with A549 NSCLC it was 3.27 µM; with UACC-257 melanoma, 14 µM; with SNB-19 CNS, 9.31 µM; in the assay with CAKI-1 renal it was 7.42 µM. Further, the values for the TGI with OVCAR-8 ovarian and in the assay with HCC-2998 colon were 7.59 µM and 6.05 µM, respectively.

Turning to `CN[C@@H]1C[C@H]2O[C@@](C)([C@@H]1OC)n1c3ccccc3c3c4c(c5c6ccccc6n2c5c31)C(=O)N[C@H]4O`, the GI50 with ACHN renal is 0.036 µM; in the assay with A549 NSCLC it was 0.0465 µM; in the assay with UACC-257 melanoma it was 0.0794 µM; in the assay with SNB-19 CNS, 0.0958 µM; with CAKI-1 renal, 0.00463 µM; with OVCAR-8 ovarian it was 0.0885 µM. Moreover, the GI50 in the assay on HCC-2998 colon is 0.0722 µM. The TGI with ACHN renal is above 10 µM; in the assay on A549 NSCLC it was 3 µM; with UACC-257 melanoma it was 2.57 µM; in the assay on SNB-19 CNS, 0.722 µM; in the assay with CAKI-1 renal, 0.0305 µM; in the assay on OVCAR-8 ovarian, above 5.44 µM. In the assay on HCC-2998 colon, this compound yielded a TGI of 0.974 µM.

As for `CC1(C)CCC[C@]2(C)c3cc(O)ccc3CC[C@@H]12`, the GI50 was 18.1 µM in the assay with ACHN renal; 14 µM with OVCAR-5 ovarian; 19 µM with A549 NSCLC; 19.6 µM in the assay on UACC-257 melanoma; 17 µM with SNB-19 CNS; 19.5 µM in the assay with CAKI-1 renal. Besides, in the assay on OVCAR-8 ovarian, the GI50 was 21.7 µM. Also, the TGI is 33.5 µM in the assay with ACHN renal; 27.9 µM in the assay with OVCAR-5 ovarian; 36.5 µM in the assay on A549 NSCLC; 36 µM in the assay with UACC-257 melanoma; 33.9 µM in the assay with SNB-19 CNS; 35.9 µM in the assay with CAKI-1 renal. Further, the TGI with OVCAR-8 ovarian worked out at 41.1 µM.

In the case of `CCCCOC(=O)c1ccc(NC(=O)CCl)cc1`, the GI50 in the assay on OVCAR-5 ovarian is 2.16 µM; in the assay on A549 NSCLC, 10.2 µM; in the assay on UACC-257 melanoma it was 3.05 µM; in the assay with SNB-19 CNS, 1.62 µM; in the assay with OVCAR-8 ovarian, 2.29 µM; with HCC-2998 colon, 15.6 µM. Besides, the TGI is 4.45 µM in the assay with OVCAR-5 ovarian; 22.8 µM in the assay on A549 NSCLC; 8.66 µM with UACC-257 melanoma; 3.22 µM in the assay with SNB-19 CNS; 4.73 µM with OVCAR-8 ovarian; 32.7 µM with HCC-2998 colon.
